Reference: patent US20240150313A1, “TRI-SUBSTITUTED INDOLE BINDING FUNCTION 3 (BF3) COMPOUNDS AND METHODS FOR THEIR USE” (The University of British Columbia, priority 2021, published 2024)
Entries after “also recorded” stand apart in the source; their conditions may differ.

Assays:
[1] = Water solubility for dosing formulation; assay type: physicochemical; details: required concentration 3.75 mg/mL
Experimental: 13822 was water soluble and was formulated as plain aqueous solution at 3.75 mg/mL. […] A formulation screen was conducted to use various pharmaceutically acceptable surfactants and additives to develop a low organic solution or metastable heterogeneous suspension suitable for oral dosing.

[2] = Conversion of prodrug to parent drug in tissue homogenate; assay type: in vitro ADME; details: mouse small intestine tissue homogenate
[3] = test system: LNCaP xenograft castration-resistant mouse model; assay: Castration-resistant LNCaP xenograft: serum PSA and tumour growth; assay type: in vivo; details: oral treatment, listed as 13789 prodrug
Experimental: Assessment of Prostate […] Antigen and Tumour Growth for Castration-resistant LNCaP Xenografts: 6-8-Week-old nude mice (Harlan Sprague-Dawley) weighing 25-31 g were subcutaneously inoculated with LNCaP cells ([…] in BD Matrigel, BD Biosciences) at the posterior dorsal site. Tumor volume, body weight, and serum PSA levels were measured weekly. Mice were castrated when serum PSA levels reached 50 ng/ml. […] Calipers were used to measure the three perpendicular axes of each tumor to calculate the tumor volume.

With `CC(C)NC(=O)c1cccc2nc(-c3cn(COP(=O)(O)O)c4c(F)c(F)c(F)cc34)ccc12` [Compound 13822] as the molecule, how does the “solubility in water” value [1] read?
The value was “water soluble”.

What about the half-life [2] of the same molecule?
Its half-life is about 2 h.

What about the “tumour volume / growth in xenograft” value ([3]; up to 5 weeks) of the same molecule?
Its value is “reduces tumor volume; also recorded: inhibited tumour growth to levels comparable with enzalutamide treatment”.

And the “serum PSA production in xenograft” value [3]?
The value was “inhibits PSA production; also recorded: reducing serum PSA levels”.
